Source: US11884649B2, “IRE1α inhibitors and uses thereof” (The Regents of the University of California, priority 2020, dated 2024)

Experiments:
IRE1α* = molecular target: T1, IRE1α* (Homo sapiens, UniProt O75460); assay: In vitro RNase activity assay, XBP1-mini substrate cleavage, inhibitor titrations; type: biochemical; conditions: relative to apo IRE1α*
T1 construct: human IRE1α (residues 547-977, IRE1α*) was expressed in SF9 insect cells; His6 (N); made in house; host or cells: Sf9 insect cells (Bac-to-Bac baculovirus)
T1 sequence (O75460 547-977): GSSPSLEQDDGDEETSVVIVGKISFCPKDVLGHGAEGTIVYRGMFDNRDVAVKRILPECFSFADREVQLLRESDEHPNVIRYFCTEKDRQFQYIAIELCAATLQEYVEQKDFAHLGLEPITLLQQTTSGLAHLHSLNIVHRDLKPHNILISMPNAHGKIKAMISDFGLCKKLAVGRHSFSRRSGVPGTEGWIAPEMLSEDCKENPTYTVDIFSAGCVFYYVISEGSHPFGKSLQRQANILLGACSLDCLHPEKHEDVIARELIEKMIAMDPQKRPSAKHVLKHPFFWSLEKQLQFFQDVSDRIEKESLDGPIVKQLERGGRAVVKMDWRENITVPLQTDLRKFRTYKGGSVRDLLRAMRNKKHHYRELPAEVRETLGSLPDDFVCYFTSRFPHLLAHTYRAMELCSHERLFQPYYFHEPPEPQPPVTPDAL
Experimental: In Vitro RNase Activity Assay Inhibitor Titrations
50 nM IRE1α* was incubated with inhibitor (initial concentration of 10 or 60 μM, three-fold serial dilutions) or DMSO for 30 min in assay buffer (20 mM Tris, 50 mM NaCl, 1 mM MgCl2, 2 mM DTT, 0.05% Triton X-100 (v/v), pH 7.5). Assays were initiated by adding 10 μL of XBP1-mini substrate (5′-Alex647-CAUGUCCGCAGCGCAUG-IowaBlack-FQ-3′ (SEQ ID NO: 1); IDT) to the wells at a final concentration of 200 nM and a final well volume of 30 μL. Fluorescence was detected on a Perkin Elmer Envision Microplate Reader at excitation and emission wavelengths of 650 nm and 665 nm. Dose-response curves were fit using “one-site fit log IC50” parameter using GraphPad Prism analysis software.

XBP1 mRNA splicing [1] = assay: XBP1 splicing in ER-stressed INS-1 cells; type: cell-based, rat; conditions: DTT, 20 μM compound
Experimental: RNA Isolation, Quantitative Real-Time PCR, and Primers
(§1) INS-1 or isogenic IRE1α-overexpressing INS-1 cells were plated onto Poly-D-Lysine coated tissue culture plate and grown for 48 hrs. Inhibitors or DMSO were added to the media and incubated for 1 hour at 37° C. with 5% CO2 prior to addition of ER stress agents or Dox as indicated. RNA was isolated from whole cells using either QIAGEN RNeasy Mini kits or Trizol (Invitrogen) and reverse transcribed as above to obtain total cDNA. Then, XBP-1 primers were used to amplify an XBP-1 amplicon spanning the 26 nt intron from the cDNA samples in a regular 3-step PCR. Thermal cycles were: 5 min at 95° C., 30 cycles of 30 s at 95° C., 30 s at 60° C., and 1 min at 72° C., followed by 72° C. for 15 min, and hold at 4° C. Primers used for XBP-1 mRNA splicing were as follows: sense primer XBP1.3 S (5′ […]-3′ (SEQ ID NO:2)) and antisense primer XBP1.2AS (5′-[…]-3′ (SEQ ID NO:3)). PCR fragments were then digested by PstI, resolved on 3% agarose gels, stained with EtBr and quantified by densitometry using ImageJ (NIH). For standard mRNA detection, generally […] total RNA was reverse transcribed using the QuantiTect Reverse Transcription Kit (QIAGEN). For qPCR, we used SYBR green (QIAGEN) and StepOnePlus Real-Time PCR System (Applied Biosystems). Thermal cycles were: 5 min at 95° C., 40 cycles of 15 sec at 95° C., 30 sec at 60° C. […]

XBP1 mRNA splicing [2] = assay: XBP1 splicing in human islets subjected to ER stress; type: cell-based; conditions: DTT, 20 μM compound
Experimental: as §1, with “(QIAGEN).” for “(QIAGEN). For qPCR, we used SYBR green (QIAGEN) and StepOnePlus Real-Time PCR System (Applied Biosystems). Thermal cycles were: 5 min at 95° C., 40 cycles of 15 sec at 95° C., 30 sec at 60° C.”
Non-diabetic human islets were obtained and cultured in supplemented Prodo Islet Medium (PIM(S) from Prodo Labs). […] Collected media were analyzed by anti-insulin ELISA (EMD Millipore) and insulin levels were normalized to total protein amount.

O=S(=O)(CC(F)(F)F)Nc1ccc(Oc2ncccc2-c2ccnc(N[C@H]3CCCNC3)n2)c2ccccc12 (stereo in doubt) [PAIR1, 2,2,2-trifluoro-N-(4-(3-(2-(piperidin-3-ylamino)pyrimidin-4-yl)pyridin-2-yloxy)naphthalen-1-yl)ethanesulfonamide]
RNase activity of IRE1α* (in words) (IRE1α*): partially inhibit | XBP1 mRNA splicing (XBP1 mRNA splicing [1]): only weakly inhibited | XBP1 mRNA splicing (XBP1 mRNA splicing [2]): only weakly inhibited
